Data as given in a melting point compilation (Tetko et al.; mined from patent text by program, amines drawn as free bases though some values may be those of a salt).

SMILES	melting point
COCC1COc2cc3ncnc(Nc4cccc(Cl)c4)c3cc2O1 (stereo not given)	277 to 282 °C
CCCCCC[C@@H](F)COc1cnc(-c2ccc(CCCCC)c(F)c2F)nc1	74.7 °C
CC(C)C1=Cc2cc(OCC(=O)O)c(Cl)c(Cl)c2C1=O	176 °C
O=C1NC(=S)NC(=O)C1c1ccccc1F	> 240 °C
O=C(O)c1cccc(CN2CCC(c3cn(Cc4ccoc4)c4ncccc34)CC2)c1	177 to 179 °C
CN1CC(CN2CC(=O)NC2=O)C=C2c3cccc4[nH]cc(c34)CC21 (stereo not given)	282 to 284 °C
O=C(CC1NCCCC1O)Cn1cnc2cc(Br)c(Cl)cc2c1=O (stereo not given)	205 °C
COc1cc(C(=O)NN)cc(OC)c1OCCCN(C)C	95 to 96 °C
O=C(Nc1ccc(-n2nc(C(F)(F)F)cc2C(F)(F)F)cc1)C1CCCCC1	178 to 180 °C
CC(=O)Nc1cc(Cl)c([N+](=O)[O-])cc1CCOC(C)=O	153 °C
Cc1oc(-c2ccccc2)nc1COc1ccc(COc2ncccc2C=O)cc1	97 to 98 °C
CC1(C)CCC(C)(C)c2cc(-c3cc(-c4ccc(C(=O)O)cc4)ccc3OCCCNC3CC3)ccc21	192 °C
C=CCCC(C)(NC(c1ccccc1)c1ccccc1)P(O)O (stereo not given)	180 °C
Sc1nc2cnc3ccccc3c2s1	282 to 284 °C
Cc1cc(C(=O)NS(=O)(=O)Cc2ccccc2C(F)(F)F)nc(Cl)n1	198 to 199 °C
O=C(O)C(=O)c1ccc(OCCOc2ccc3cc4ccccc4cc3c2)cc1	213 to 214 °C
COc1cc(Nc2c(C#N)cnc3cc4cc(OC)c(OCCN5CCC(O)CC5)cc4cc23)c(Cl)cc1Cl	150 to 160 °C
Cc1cc(-n2ccnc2)c2cccc(OCc3c(Cl)ccc(S(=O)(=O)N4CCC[C@H]4C(=O)NCCCNC(=O)c4ccc(C#N)cc4)c3Cl)c2n1	118 °C
CCCN(CCCCc1c[nH]c2ccc(F)cc12)C1COc2c(C(N)=O)ccc(F)c2C1 (stereo not given)	116 °C
CCOC(=O)c1nn(C)cc1C(F)F	30 to 31 °C
CCN(CC)C(=O)n1cc(F)c(=O)[nH]c1=O	157 to 160 °C
CC(=O)NC[C@H]1CN(c2ccc(N3CC(O[Si](C)(C)C(C)(C)C)C3)c(F)c2)C(=O)O1	184 °C
CCn1nc(OCCCc2ccc(OC(C)C)cc2OCc2ccc(C(F)(F)F)cc2)cc1CCC(=O)O	75 to 76 °C
CCCn1nc2c(N)nc3ccccc3c2c1NCc1ccccc1	160 to 161 °C
O=Cc1ncc2n1-c1ccc(Cl)cc1C(c1ccccc1F)=NC2	182 to 183 °C

SMILES	melting point
CCNC(=O)c1ccccc1Nc1nc(Nc2c(OC)ccc3c2CC(=O)N(CC)CC3)ncc1Cl	117 to 141 °C
CCN(CC)CCOc1ccc(Nc2ncc3c(n2)N(C2CCCC2)C(=O)NC3)cc1C	175 to 177 °C
Cc1cc(O)n2nc(S(=O)(=O)Nc3ccccc3C(F)(F)F)nc2n1	245 to 247 °C
O=C(O)CCCc1cc2nc(Cl)ccc2n1S(=O)(=O)c1c(F)cc(F)cc1F	135 to 150 °C
Nc1ccccc1S(=O)c1nc2cc(Cl)ccc2[nH]1 (stereo not given)	176 to 178 °C
CC(C)(O)CC12C=CC=CC1C(=O)NC2=O (stereo not given)	104 to 105 °C
O=C(N[C@@H](CS(=O)(=O)c1ccc(Oc2ccccc2)cc1)C(=O)NO)OCc1ccccc1	195 to 202 °C
CCOC(=O)c1cnn(C)c1NC(=O)Nc1ccccc1	151 to 153 °C
Cc1cc(C)c(CP(Cc2c(C)cc(C)cc2C)Cc2c(C)cc(C)cc2C)c(C)c1	148 to 158 °C
Cc1noc(=O)c2ccc(N)cc12	291 to 296 °C
O=C(Nc1ccc(N2CCCC2)cc1)N(C[C@H]1CC[C@H](CN(C(=O)Nc2ccc(N3CCCC3)cc2)C2CCCCC2)CC1)C1CCCCC1	149 to 152 °C
Cc1ccccc1-c1cnc2c(C(F)(F)F)cccc2c1-c1cccc(NC(=O)Nc2ccccc2F)c1	218 to 220 °C
CC(C)=CC(=O)NCC1Cc2ccc(-c3ccc(=O)[nH]n3)cc2C1 (stereo not given)	204 to 205 °C
O=C(CCl)c1ccc2c(c1)Cc1cc(C(=O)CCl)ccc1S2	175 to 177 °C
Cc1cc(NC(=O)NN(c2ccccc2)c2cccc(C#N)c2)ccc1N1CCCCC1=O	161 to 162 °C
COc1cc(Nc2c(C#N)cnc3cc(C#Cc4ccncc4)sc23)c(Cl)cc1Cl	221 to 223 °C
COC(=O)CN(C1c2cc(Cl)ccc2OC(C)(C)C1O)S(C)(=O)=O (stereo not given)	148 to 150 °C
O=C(C(=O)c1ccc(F)c(CF)c1)c1ccc(OC(F)F)cc1	68 to 70 °C
CCc1nn(Cc2cc(=O)[nH]c(N)n2)c(CC)c1Oc1cc(Cl)cc(Cl)c1	238 to 240 °C
NC=C1C(=O)c2ccccc2OC1c1ccccc1 (stereo not given)	149 to 152 °C
COc1cc2c(=O)c(C#N)c[nH]c2cc1NC(C)=O	305 to 310 °C
O=C1C=CC(O)(c2nc3ccccc3s2)C(Cl)=C1 (stereo not given)	140 to 143 °C
CCC1N=C(c2ccccc2Cl)c2cc(CC(=O)OC)sc2NC1=O (stereo not given)	202 to 204 °C
NC(=O)[C@@H]1[C@H](Nc2ccnc3[nH]c(-c4ccc(N5CCOCC5)cc4)nc23)[C@H]2C=C[C@@H]1C2	240 to 244 °C
CCCCCCN1CC[C@H](NC(=O)c2cc(Cl)c(N)c3c2OCC3)[C@H](O)C1 (relative stereo)	130 °C

SMILES	melting point
COc1ccc(Oc2ccc(C(=O)NC(C(=O)O)C(C)C)cc2)cc1 (stereo not given)	156 °C
O=C1c2cc(Cl)c(Cl)cc2C(O)N1CCO[N+](=O)[O-] (stereo not given)	145 to 147 °C
CC[N+]1([O-])CCC(O)(c2cc(F)cc(Cl)c2)C1 (stereo not given)	158 to 160 °C
CC(C)=C1OC(=O)N(c2ccc(Cl)cc2)C1=O	135 to 136 °C
COc1ccc2cc(-c3ccc(C#C[Si](C)(C)C)cc3)[nH]c(=O)c2c1	133 to 135 °C
OCCc1ccc(-c2ccc(Cl)cc2)cc1	113 to 115 °C
O=C(O)C(F)c1ccc(Cl)cc1 (stereo not given)	66 to 68 °C
O=Cc1ccccc1SSc1ccccc1C=O	145 °C
CCOC(=O)c1cnn(-c2ccc(Cl)cc2C(F)(F)F)c1N	114 to 116 °C
CC(=O)NC(CC(=O)N[C@@H]1CN2C(=O)N(c3cc(Cl)nc(Cl)c3)C(=O)[C@@]2(Cc2ccc(OC(F)(F)F)cc2)C1)C(N)=O (stereo not given in full)	153 °C
Cc1cc2ccccn2c1C(=O)c1ccc([N+](=O)[O-])cc1	149 °C
Fc1ccc(C(c2ccc(F)cc2)C2CCN(CCCOc3c(Cl)cccc3Cl)CC2)cc1	102 to 103 °C
O=C(c1cccs1)N(CCCSc1ccncc1)c1ccccc1	66 to 67 °C
Clc1ccc(COC(CNc2ccc(Cl)c(Cl)c2)Cn2ccnc2)cc1 (stereo not given)	102 to 103 °C
CC1CCCN1C1CCN(c2ccc(C(=O)NC3CCOCC3)cc2)C1 (stereo not given)	180 °C
CN(C(=O)Nc1nc(OCC(F)(F)F)nc(OCC(F)(F)F)n1)c1ccc(C(F)(F)F)cc1	130 to 132 °C
Nc1cc(Cl)c(Cl)cc1C(=O)O	196 to 203 °C
C[N+](C)([O-])CC#CC1=Cc2ccccc2Sc2ccc(Cl)cc21	68 to 69 °C
COC(=O)c1cc2c3c(Cl)cc(Cl)cc3n(C)c2s1	231 to 232 °C
O=C1C=CC(Br)N(CCl)N1 (stereo not given)	90 °C
CC1CC(=O)c2cc(Cl)ccc2O1 (stereo not given)	100 to 102 °C
CCCC1=NN(c2ccc(C(N)=O)cc2)C(=O)C1=CNc1ccccc1CC	170 °C
O=C(NCCN1CCOCC1)c1ccc2cc(C(=O)O)[nH]c2c1	227 to 233 °C
O=C(O)c1cc2cc3[nH]c(=O)oc3cc2[nH]1	288 to 290 °C
CC(C)(C)OC(=O)NC1CCc2ccc(C=O)cc2C1 (stereo not given)	98 to 101 °C

SMILES	melting point
Cc1ccc(N2C(=O)C(N)=C(C(=O)c3ccc(C(C)C)cc3)C2c2ccc(OC(F)(F)F)cc2)nn1 (stereo not given)	258 to 260 °C
CCc1cc(NCc2ccc(-c3ccccc3C#N)cc2)n2ccnc2n1	99 to 100 °C
Oc1ccc(-c2nc3ccc(O)cc3c(-c3ccc(F)cc3)c2Cl)cc1	295 to 296 °C
O=C(O)C(CC1CCCCC1)NS(=O)(=O)c1ccc(Cl)cc1 (racemic)	127 to 129 °C
CC(C)c1oc(-c2ccccc2)nc1CC(=O)O	141 to 143 °C
CCc1nc(-c2ccccc2)n(CC(C)(OC)OC)c(=O)c1C	80 to 83 °C
Cc1cc(C2(c3ccc(Cl)cc3)OCCS2)ccc1NC(=O)c1cccc(I)c1C(=O)NC(C)C (stereo not given)	214 to 217 °C
COc1cscc1C(=O)NN	91 to 92 °C
O=C(O)C1=CS[C@@H]2/C(=C\c3ccc4nc5n(c4c3)CCS5)C(=O)N12	> 250 °C
COc1ccccc1C1=Nc2ccc(N3CCOCC3)cc2C(=O)C1	262 to 264 °C
COCC1CN(c2ccc(C3CCC(CCNC(C)=O)CC3)cc2)C(=O)O1 (racemic)	120 to 122 °C
CN1CC(Cc2ccccc2)OC1=O (stereo not given)	80 to 82 °C
O=C(COc1cc(-c2ccc(Cl)cc2)nc2ccccc12)N1CCSCC1	117 °C
O=[N+]([O-])c1cccc2c1ncn2-c1cccc(Br)c1	180 to 182 °C
C#CCOCC(=O)Nc1ccccc1	142 to 145 °C
CC(C)(C)Sc1cnn(-c2c(Cl)cc(C(F)(F)F)cc2Cl)c1N	129 °C
CC(C)(C)OC(=O)N1CCC(CN2C(=O)C3(COc4cc5c(cc43)C(C)(C)CO5)c3ccccc32)CC1 (stereo not given)	65 to 75 °C
CC(C)c1cccc(-c2ccc(F)cc2)c1OCCO	77 to 78 °C
O=[N+]([O-])c1ccc(Oc2ccccc2Oc2ccc([N+](=O)[O-])c(O)c2)cc1O	178 to 180 °C
CN1N=C(c2ccc(Cl)cc2)CC1=O	189 °C
CN(C)C1CC2(C)C(=O)CCC2C2CCC3CC(O)CCC3(C)C21 (stereo not given)	135 to 136 °C
Fc1ccc(-n2c(CCl)csc2=S)c(F)c1F	127 to 130 °C
O=C(O)CSc1nc(=O)[nH]cc1F	255 °C
CCNC(=O)C1OC(n2cnc3c(NCc4ccc(O)cc4)ncnc32)C(O)C1O (stereo not given)	180 °C
CC(=O)c1cc(Cl)cc(Oc2ncccc2C(=O)NCc2ccc(C(C)(C)O)cc2Cl)c1	58 to 60 °C
